Experimental data published in ChEMBL document CHEMBL1201862, “PubChem BioAssay data set” (2004).
Active and inactive are the calls of the source. Rule as the data show it, for most assays here: actives have a measured EC50 and inactives only a lower limit.

How the values were obtained:
[1] = microbe, parasite or virus in culture; assay type: functional; conditions: Mycobacterium tuberculosis
[2] = molecular target: T1, Heat shock factor protein 1 (Mus musculus, UniProt P38532); assay: HSF1 potentiators in luciferase reporter cells, confirmation, cell-based, NIH3T3, luminescence, dose retest (AID 435004); assay type: functional;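 also: stress induced by proteasome inhibitor MG132 added 30 min after compound; luciferase reporter driven by HSF1 response element in NIH3T3 cells; actives raise luminescence as potentiators of the MG132 stress response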
T1 sequence (P38532 whole entry): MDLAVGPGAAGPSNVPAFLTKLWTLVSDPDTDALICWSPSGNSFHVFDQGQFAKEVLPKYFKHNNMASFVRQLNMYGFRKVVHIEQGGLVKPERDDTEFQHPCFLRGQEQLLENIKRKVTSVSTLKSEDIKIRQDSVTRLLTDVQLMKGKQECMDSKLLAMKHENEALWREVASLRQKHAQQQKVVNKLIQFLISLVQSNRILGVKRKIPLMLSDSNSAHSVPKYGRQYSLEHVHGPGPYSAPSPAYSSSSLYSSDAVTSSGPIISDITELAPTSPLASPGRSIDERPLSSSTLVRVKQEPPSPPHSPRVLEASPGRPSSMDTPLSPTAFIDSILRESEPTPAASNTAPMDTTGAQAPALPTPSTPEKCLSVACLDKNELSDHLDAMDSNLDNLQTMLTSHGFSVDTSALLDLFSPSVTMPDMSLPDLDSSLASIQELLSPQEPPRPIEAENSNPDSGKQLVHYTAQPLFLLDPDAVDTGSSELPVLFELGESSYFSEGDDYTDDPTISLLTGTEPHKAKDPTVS

[3] = molecular target: T2, RNA-binding protein pos-1 (Caenorhabditis elegans, UniProt G5EF15); assay: inhibitors of POS-1/mex-3 RNA binding, dose response, biochemical, fluorescence polarization (AID 1964);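 also: purified POS-1 fused to maltose binding protein made in E. coli; potency of compounds blocking POS-1 binding to fluorescent RNA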
T2 sequence (G5EF15 whole entry): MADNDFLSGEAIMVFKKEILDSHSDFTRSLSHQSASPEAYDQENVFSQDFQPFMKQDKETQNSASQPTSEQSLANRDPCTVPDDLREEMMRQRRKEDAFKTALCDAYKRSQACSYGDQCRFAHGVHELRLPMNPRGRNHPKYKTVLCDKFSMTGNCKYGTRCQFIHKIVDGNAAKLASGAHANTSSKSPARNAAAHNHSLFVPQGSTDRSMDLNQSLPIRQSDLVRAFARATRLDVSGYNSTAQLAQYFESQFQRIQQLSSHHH

[4] = molecular target: T3, Corticotropin-releasing factor receptor 2/Corticotropin-releasing factor-binding protein (Homo sapiens, UniProt P24387+Q13324); assay: activators of CRF receptor 2 with binding protein – uHTS hits, confirmation (AID 602473); assay type: functional; conditions: read-out: EC50_Mean
T3 sequence (Q13324 whole entry): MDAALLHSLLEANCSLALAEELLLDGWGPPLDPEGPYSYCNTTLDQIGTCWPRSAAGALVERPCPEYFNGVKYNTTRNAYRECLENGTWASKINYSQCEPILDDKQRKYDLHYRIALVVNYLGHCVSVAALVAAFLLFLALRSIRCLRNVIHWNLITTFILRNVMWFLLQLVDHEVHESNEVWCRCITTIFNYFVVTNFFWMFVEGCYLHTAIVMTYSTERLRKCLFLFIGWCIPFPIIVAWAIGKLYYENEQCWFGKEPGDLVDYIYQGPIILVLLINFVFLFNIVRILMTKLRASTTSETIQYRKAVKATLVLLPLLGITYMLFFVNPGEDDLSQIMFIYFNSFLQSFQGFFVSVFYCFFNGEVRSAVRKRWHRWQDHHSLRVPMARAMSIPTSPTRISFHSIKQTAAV
T3 sequence (P24387 whole entry): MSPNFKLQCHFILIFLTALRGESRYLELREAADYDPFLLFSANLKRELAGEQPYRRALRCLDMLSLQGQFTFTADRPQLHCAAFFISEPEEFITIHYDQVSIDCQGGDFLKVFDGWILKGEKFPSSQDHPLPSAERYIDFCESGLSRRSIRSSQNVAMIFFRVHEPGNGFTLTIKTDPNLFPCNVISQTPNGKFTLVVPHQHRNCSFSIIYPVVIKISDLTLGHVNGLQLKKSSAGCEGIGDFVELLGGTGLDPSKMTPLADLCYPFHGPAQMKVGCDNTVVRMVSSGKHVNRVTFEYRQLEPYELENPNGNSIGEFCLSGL

[5] = cells; assay type: functional
[6] = molecular target: T4, Replicative DNA helicase DnaB (Mycobacterium tuberculosis, UniProt P9WMR3); assay: DnaB intein splicing inhibitors, dose response, biochemical, cell-free fluorescence (AID 449749); assay type: functional
T4 sequence (P9WMR3 whole entry): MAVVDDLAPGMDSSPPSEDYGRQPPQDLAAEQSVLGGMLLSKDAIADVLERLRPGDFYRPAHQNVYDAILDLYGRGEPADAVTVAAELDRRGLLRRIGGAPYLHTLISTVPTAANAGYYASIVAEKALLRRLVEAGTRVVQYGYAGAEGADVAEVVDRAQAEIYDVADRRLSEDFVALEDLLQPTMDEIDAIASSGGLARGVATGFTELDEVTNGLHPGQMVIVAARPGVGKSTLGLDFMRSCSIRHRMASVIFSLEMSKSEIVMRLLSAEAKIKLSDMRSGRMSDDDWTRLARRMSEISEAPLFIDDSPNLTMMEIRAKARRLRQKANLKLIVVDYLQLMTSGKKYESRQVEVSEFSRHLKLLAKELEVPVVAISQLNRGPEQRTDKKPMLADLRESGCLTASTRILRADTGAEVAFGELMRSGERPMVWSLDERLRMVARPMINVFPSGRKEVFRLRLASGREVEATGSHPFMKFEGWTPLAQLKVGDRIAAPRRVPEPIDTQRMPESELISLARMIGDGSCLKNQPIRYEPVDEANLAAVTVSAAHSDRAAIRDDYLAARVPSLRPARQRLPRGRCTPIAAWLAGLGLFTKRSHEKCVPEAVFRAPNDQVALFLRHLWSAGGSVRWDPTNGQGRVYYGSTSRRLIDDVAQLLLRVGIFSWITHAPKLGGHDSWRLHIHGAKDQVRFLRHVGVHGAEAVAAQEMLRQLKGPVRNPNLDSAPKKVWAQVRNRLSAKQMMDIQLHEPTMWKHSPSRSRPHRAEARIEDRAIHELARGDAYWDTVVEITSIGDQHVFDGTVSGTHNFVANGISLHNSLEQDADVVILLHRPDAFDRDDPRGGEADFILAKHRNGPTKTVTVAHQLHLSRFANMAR

[7] = molecular target: T5, Protein RecA (Mycobacterium tuberculosis, UniProt P9WHJ3); assay: Fluorescence Cell-Free Homogeneous Dose Retest to Identify Inhibitors of RecA-Intein Splicing Activity. [Related pubchem assays (depositor defined):AID2097, AID2223, AID489010, AID492950]; assay type: functional
T5 sequence (P9WHJ3 whole entry): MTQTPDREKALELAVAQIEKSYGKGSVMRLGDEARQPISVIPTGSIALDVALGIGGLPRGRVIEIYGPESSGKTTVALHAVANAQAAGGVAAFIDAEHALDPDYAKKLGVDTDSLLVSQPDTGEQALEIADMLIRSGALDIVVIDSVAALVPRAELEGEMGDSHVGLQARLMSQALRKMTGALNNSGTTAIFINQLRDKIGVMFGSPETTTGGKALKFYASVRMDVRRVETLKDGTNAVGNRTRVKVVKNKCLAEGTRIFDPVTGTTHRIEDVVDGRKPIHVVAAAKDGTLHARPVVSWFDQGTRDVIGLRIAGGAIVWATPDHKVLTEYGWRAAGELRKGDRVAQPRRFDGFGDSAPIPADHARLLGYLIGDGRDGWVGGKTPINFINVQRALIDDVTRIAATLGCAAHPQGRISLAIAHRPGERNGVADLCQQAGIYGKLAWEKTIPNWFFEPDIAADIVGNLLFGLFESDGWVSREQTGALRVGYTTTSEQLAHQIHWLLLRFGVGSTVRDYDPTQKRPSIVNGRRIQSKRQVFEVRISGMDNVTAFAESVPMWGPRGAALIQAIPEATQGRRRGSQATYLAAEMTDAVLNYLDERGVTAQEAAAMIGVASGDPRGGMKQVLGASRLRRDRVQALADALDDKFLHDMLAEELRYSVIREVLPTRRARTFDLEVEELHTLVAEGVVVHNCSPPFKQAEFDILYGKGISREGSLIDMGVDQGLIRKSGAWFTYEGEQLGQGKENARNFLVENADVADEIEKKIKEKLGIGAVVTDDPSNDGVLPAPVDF

[8] = Luminescence Cell-Based Dose Confirmation HTS to Identify Activators of 5'UTR Stem-Loop Driven Alpha-Synuclein mRNA Translation in H4 Neuroglioblastoma Cells. [Related pubchem assays: 1829 (Project Summary), 1814 (Primary HTS)]; assay type: functional
[9] = Luminescence Cell-Based Dose Response HTS to Identify Activators of Luciferase Translation or Activity in H4 […] Cells. [Related pubchem assays: 1829 (Project Summary), 1814 (Primary HTS)]; assay type: functional
[10] = test system: H4; assay: Luminescence Cell-Based Dose Response HTS to Identify Activators of 5'UTR Stem-Loop Driven Prion Protein mRNA Translation in H4 Neuroglioblastoma Cells. [Related pubchem assays: 1829 (Project Summary), 1814 (Primary HTS)]; assay type: functional; conditions: Homo sapiens
[11] = Luminescence Cell-Based Dose Retest to Confirm Inhibitors of Cancer Stem Cells. [Related pubchem assays (depositor defined):AID2717, AID2721]; assay type: functional; conditions: Homo sapiens
[12] = Luminescence Cell-Based Dose Response HTS to Identify Inhibitors of 5'UTR Stem-Loop Driven Prion Protein mRNA Translation in H4 Neuroglioblastoma Cells. [Related pubchem assays: 1827 (Project Summary), 1813 (Primary HTS)]; assay type: functional
[13] = molecular target: Luciferin 4-monooxygenase (Photinus pyralis, UniProt P08659); assay: firefly luciferase enzyme inhibitors, dose response, biochemical, luminescence (AID 1891)
Luciferin 4-monooxygenase, sequence (P08659 whole entry): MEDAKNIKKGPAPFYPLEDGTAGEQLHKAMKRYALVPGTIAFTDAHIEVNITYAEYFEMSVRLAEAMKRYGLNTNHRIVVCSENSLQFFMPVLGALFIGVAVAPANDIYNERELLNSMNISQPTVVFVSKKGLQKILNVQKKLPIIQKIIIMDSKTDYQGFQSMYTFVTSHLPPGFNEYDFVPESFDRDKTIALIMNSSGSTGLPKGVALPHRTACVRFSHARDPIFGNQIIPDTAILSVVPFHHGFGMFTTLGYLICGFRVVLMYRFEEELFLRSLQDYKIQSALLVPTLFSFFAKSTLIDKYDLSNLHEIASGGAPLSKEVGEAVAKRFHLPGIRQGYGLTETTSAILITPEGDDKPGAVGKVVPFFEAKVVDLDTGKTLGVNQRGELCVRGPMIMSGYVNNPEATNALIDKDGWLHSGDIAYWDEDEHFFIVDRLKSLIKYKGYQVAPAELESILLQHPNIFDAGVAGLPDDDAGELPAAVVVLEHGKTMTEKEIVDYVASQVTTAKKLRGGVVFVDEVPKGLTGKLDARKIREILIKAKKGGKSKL

[14] = HEp-2 cell cytotoxicity, dose response, cytotoxicity control for RSV inhibitor project, HTS (AID 2410); assay type: functional; conditions: human respiratory syncytial virus
[15] = Luminescence Cell-Based Dose Confirmation HTS to Identify Inhibitors of Platelet Dense Granule Release. [Related pubchem assays: 1663 (Primary HTS), 1678 (Summary of Project)]; assay type: functional
[16] = inhibitors of SNCA 5'UTR-driven reporter translation, confirmation, H4 neuroglioma cells, luminescence (AID 1988); assay type: functional, cell-based

CCC(=O)Oc1ccc(C(=O)Nc2ccc3c(c2)C(=O)N(C2CCCCC2)C3=O)cc1
CC50 [1]: 39.9 µM (active)

Nc1nnc(SCc2c(F)cccc2Cl)s1
EC50 [2]: > 260 µM (inactive)

COc1cc(S(=O)(=O)Nc2ccc(C)cc2)ccc1N/C=C1\C(=O)N(C)C(=O)C(C#N)=C1C
EC50 [3]: 2.83 µM (active)
EC50 [4]: > 53 µM (inactive)

CCO[C@H]1OC(C(=O)NCc2nc3ccccc3[nH]2)=C[C@@H](c2csc3ccccc23)[C@@H]1CCCO
CC50 [1]: > 40 µM (active)

COc1ccc(C2NC(=O)CCC2[N+](=O)[O-])c(OC)c1 (stereo not given)
EC50 [2]: > 260 µM (inactive)

COC(=O)CCCCCN1C(=O)/C(=C\c2ccncc2)SC1=S
IC50 [5]: 7.86 µM (active)
AC50 [6]: 12.2 µM (active)
EC50 [7]: 17.7 µM (active)

COc1ccc(C2=NOC(COC(=O)c3ccc4ccccc4n3)C2)cc1 (stereo not given)
IC50 [5]: 9.07 µM (active)
EC50 [8]: 17.2 µM (active)
EC50 [9]: > 120 µM (not active)
EC50 [10]: 4.71 µM (active)

CN(Cc1ccco1)c1ncnc2ccc(-c3ccc4c(ccn4C)c3)cc12
CC50 [1]: 15.4 µM (active)
AC50 [11]: 499 nM (active)

CCOc1ccccc1C(=O)Nc1cnc(O)nc1O
EC50 [12]: > 120 µM (not active)
EC50 [13]: > 112 µM (not active)
CC50 [14]: > 50 µM (active)
EC50 [15]: 125 nM (active)
EC50 [16]: > 120 µM (not active)

Cc1cc(/C=C2\C(=O)NC(=O)N(c3ccc(Br)cc3)C2=O)c(C)n1C
EC50 [3]: 59.7 µM (active)

CC(=O)OCCN(C)c1cc(SC(C)C)c2nonc2c1[N+](=O)[O-]
IC50 [5]: 41.4 µM (active)
AC50 [6]: > 380 µM (inactive)
EC50 [7]: > 380 µM (inactive)

COC(=O)CC1C(=O)NCCN1C(=O)c1ccc(S(=O)(=O)N2CCOCC2)cc1 (stereo not given)
EC50 [2]: > 260 µM (inactive)

Nc1ccc2cc(Br)ccc2c1
IC50 [5]: 25.7 µM (active)

CCn1nnc(NC(=O)c2ccc(-c3ccc(Cl)cc3)o2)n1
IC50 [5]: > 50 µM (active)

CC(C)(C)OC(=O)NCCCCCc1nnc(SCc2ccc(F)cc2)o1
CC50 [1]: > 40 µM (active)

CSC1=NC(/C=C/c2ccc(Cl)cc2)=CC(C)(C)N1
CC50 [1]: 11.1 µM (active)
EC50 [8]: 14.3 µM (active)
EC50 [9]: > 120 µM (not active)
EC50 [10]: > 120 µM (not active)

O=C(O)c1cccc(S(=O)(=O)N2CCC(n3nnc4cc(C(F)(F)F)ccc43)CC2)c1
EC50 [2]: > 260 µM (inactive)

CC(C)Cc1cc(C(=O)Nc2ccc(F)cc2F)no1
IC50 [5]: 12 µM (active)

CCc1cc(C(c2ccccc2OC)N2CCOCC2)c(NC(=O)c2ccccc2)s1 (stereo not given)
EC50 [2]: 7.34 µM (active)

Cc1cc2oc(=O)cc(CSc3nc(N)cc(N)n3)c2cc1C
EC50 [2]: > 260 µM (inactive)

COc1ccc(C(=O)C2CCCN(Cc3ccc(C)s3)C2)c(OC)c1 (stereo not given)
EC50 [2]: > 260 µM (inactive)

NC(=O)COc1ccccc1
EC50 [2]: > 260 µM (inactive)

O=C(N/N=C/C=C/c1cccc([N+](=O)[O-])c1)c1ccncc1
IC50 [5]: 34.9 µM (active)

CC(/C=C/c1cccc([N+](=O)[O-])c1)=N\NC(=O)c1ccncc1
IC50 [5]: 0.94 µM (active)
